Experimental data published in publication PMC6008493, “Thioamide substitution to probe the hydroxyproline recognition of VHL ligands” (Bioorganic & Medicinal Chemistry, 2018).
Like-named read-outs stand apart in the source and are kept apart here.

Legend:
[1] = Quantification of ligand trans and cis isomers in solution by NMR; format: physicochemical; settings: free ligand in solution
Text: We next evaluated the impact of thioamide substitutions to the n → π^∗ interaction in the ligand free state in solution. This interaction is only possible when the Hyp (thio)amide group is in the trans isomer conformation (Fig. 1A). Thus, the ratio between the trans and cis isomers at equilibrium can be used to infer the strength of the n → π^∗ interaction.[13]
Quantification of ligands trans and cis isomers in solution.

[2] = target: VBC complex (VHL, elongin B, elongin C) (Homo sapiens, UniProt P40337); assay: Isothermal titration calorimetry (ITC) direct titration; settings: for ΔH: ITC enthalpy of binding; for ΔH / Kd: 25°C; for Kd: read-out: Kd ITC, pH 7, 3% DMSO
[3] = target: T1, VBC protein (VHL, elongin B, elongin C) (Homo sapiens, UniProt P40337); assay: Competitive fluorescence polarization (FP) binding assay displacing FAM-labelled HIF-1α peptide
T1 construct: made in house
Experimental: Control wells contained VBC and peptide in the absence of compound (maximum signal), and peptide in the absence of protein (background signal). Data were obtained in triplicate and the percentage of displacement was determined and graphed against log[VHL inhibitors]. Average IC50 values and the standard error of the mean (SEM) were determined for each titration using Prism 6. Dissociation constants Kd were back-calculated from the measured IC50 values using a displacement binding model, as described previously.^6

[4] = relative to unmodified ligand 1
[5] = back-calculated from measured IC50, 15 nM VBC, 10 nM FAM-HIF-1α peptide, pH 7, read-out: Kd FP

Compound: CC(=O)N[C@@H](C)C(=S)N1C[C@H](O)C[C@H]1C(=O)NCc1ccc(-c2scnc2C)cc1 [compound 3, (2S,4R)-1-((S)-2-Acetamidopropanethioyl)-4-hydroxy-N-(4-(4-methylthiazol-5-yl)benzyl)pyrrolidine-2-carboxamide]
- trans:cis (%) - cis isomer [1]: 6%
- trans:cis (%) - trans isomer [1]: 94%
- ΔH [2]: -6.79 ± 0.01 kcal/mol
- Kd [2]: 0.76 ± 0.02 µM
- loss in binding affinity by ITC [2, 4]: twofold
- Kd [3, 5]: 1 ± 0.4 µM
- loss in binding affinity by FP [3, 4]: twofold

Compound: CC(=O)N[C@@H](C)C(=O)N1C[C@H](O)C[C@H]1C(=S)NCc1ccc(-c2scnc2C)cc1 [compound 2, N-((S)-1-((2S,4R)-4-Hydroxy-2-((4-(4-methylthiazol-5-yl)benzyl)carbamothioyl)pyrrolidin-1-yl)-1-oxopropan-2-yl)acetamide]
- trans:cis (%) - cis isomer [1]: 11%
- trans:cis (%) - trans isomer [1]: 89%

Compound: CC(=O)N[C@@H](C)C(=S)N1C[C@H](O)C[C@H]1C(=S)NCc1ccc(-c2scnc2C)cc1 [compound 4, N-((S)-1-((2S,4R)-4-hydroxy-2-((4-(4-methylthiazol-5-yl)benzyl)carbamothioyl)pyrrolidin-1-yl)-1-thioxopropan-2-yl)acetamide]
- trans:cis (%) - cis isomer [1]: 10%
- trans:cis (%) - trans isomer [1]: 90%
- ΔH [2]: -2.56 ± 0.01 kcal/mol
- Kd [2]: 21.6 ± 0.8 µM
- Kd [3, 5]: > 13 µM
- Kd ([3]; text summary of FP and ITC, read-out: Kd): > 10 µM

Compound: CC(=O)N[C@@H](C)C(=O)N1C[C@H](O)C[C@H]1C(=O)NCc1ccc(-c2scnc2C)cc1 [compound 1]
- trans:cis (%) - cis isomer [1]: 8%
- trans:cis (%) - trans isomer [1]: 92%
